Measured values reported in PMC8880315, “Understanding the Impact of Age-Related Changes in Pediatric GI Solubility by Multivariate Data Analysis” (Pharmaceutics, 2022).
In brackets after ≈: the same amount, converted by molar mass. Read-outs that look alike come from different tables or passages of the source. Blank lines part the entries; values can stand above or below the compound they belong to.

Legend:
[1] = physchem; conditions: adult fed state simulated gastric fluid (FeSSGF), milk-based, 37 °C, pH 5, fassgf or other biorelevant, thermodynamic from solid
[2] = physchem; conditions: 37 °C, thermodynamic from solid
[3] = cited from earlier work
[4] = set-up: method as in PMID 26220249; conditions: cited from earlier work
[5] = adult fasted state simulated gastric fluid (FaSSGF), pH 1.6, fassgf or other biorelevant
[6] = adult fasted state simulated intestinal fluid (FaSSIF-V2), pH 6.5, fassif
[7] = adult fed state simulated intestinal fluid (FeSSIF-V2), pH 5.8, fessif
[8] = Table 1, reference per cell, none given for mebendazole
[9] = at least one of the newborn FeSSIF (Pnb-FeSSIF and Pnc-FeSSIF), previous solubility study

solubility at 48 h [1]: 158 ± 7.22 µg/mL (≈ 314 µM) | solubility at 24 h [2, 5]: 11500 ± 570 µg/mL (≈ 22800 µM) | solubility at 24 h [2, 6]: 11.9 ± 0.17 µg/mL (≈ 23.5 µM) | solubility at 24 h [2, 7]: 81.4 ± 1.74 µg/mL (≈ 161 µM) | solubility in pediatric vs adult medium (Pnc-FeSSGF (cow's milk formula) vs adult FeSSGF): significantly lower solubility | solubility in pediatric vs adult medium (Pns-FeSSGF (soy formula) vs adult FeSSGF): significantly higher solubility | solubility in pediatric vs adult medium (all pediatric fed intestinal media (Pnb-FeSSIF, Pnc-FeSSIF, Pi-FeSSIF) vs adult FeSSIF-V2): significant solubility differences
Compound: OCCN(CCO)c1nc(N2CCCCC2)c2nc(N(CCO)CCO)nc(N3CCCCC3)c2n1 [Dipyridamole]
pKa (basic) [3, 8]: 5.7–6.4 (basic) [19, 20] | solubility in pediatric vs adult medium (pediatric fasted gastric fluids (Pn-FaSSGF and Pi-FaSSGF) vs adult FaSSGF, ANOVA p ≤ 0.05): higher solubility in both pediatric gastric fluids; however, these differences were not statistically significant

Compound: COC(=O)Nc1nc2ccc(C(=O)c3ccccc3)cc2[nH]1 [Mebendazole]
logP [3, 8]: 2.80 | pKa (basic) [3, 8]: 3.5 (basic)

Compound: Nc1ccc(O)c(C(=O)O)c1 [Mesalazine]
logP [3, 8]: 0.98 [8] | pKa (basic) [3, 8]: 5.69 | pKa (acidic) ([3]; Table 1, reference per cell): 2.3 | pKa (basic) ([3]; no reference given): 5.7

Compound: CC(C)(O)c1ccccc1CC[C@@H](SCC1(CC(=O)O)CC1)c1cccc(/C=C/c2ccc3ccc(Cl)cc3n2)c1 [Montelukast]
pKa (basic) [3, 8]: 2.7 | pKa (acidic) ([3]; Table 1, reference per cell): 5.8

solubility at 48 h [1]: 390 ± 6.35 µg/mL (≈ 1640 µM) | solubility at 24 h [2, 5]: 196 ± 11.7 µg/mL (≈ 823 µM) | solubility at 24 h [2, 6]: 215.7 ± 1.96 µg/mL (≈ 906 µM) | solubility at 24 h [2, 7]: 209 ± 3.22 µg/mL (≈ 879 µM) | solubility differences between adults and pediatrics (all pediatric media tested): no significant solubility differences
Compound: O=C1CN(/N=C/c2ccc([N+](=O)[O-])o2)C(=O)N1 [Nitrofurantoin]
pKa (acidic) ([3]; Table 1, reference per cell): 7.2 (acidic) [13] | Sp/Sa (%) vs 80–[…] risk assessment limits (all pediatric media tested): within the 80–125% risk assessment limits

Compound: NC(=O)N1c2ccccc2C=Cc2ccccc21 [carbamazepine]
solubility in pediatric gastric fluids in comparison to adult gastric fluids ([4]; fasted gastric fluids, previous study): statistical different (p ≤ 0.05) and outside the purported bioequivalence criterion

Compound: Nc1ccc(S(=O)(=O)c2ccc(N)cc2)cc1 [dapsone]
logP ([3]; no reference given): 0.97

Compound: COC1=CC(=O)C[C@@H](C)[C@]12Oc1c(Cl)c(OC)cc(OC)c1C2=O [griseofulvin]
Sp/Sa (%) [4, 9]: below 80 % of adult values

Compound: COc1ccc2c(c1)c(CC(=O)O)c(C)n2C(=O)c1ccc(Cl)cc1 [indomethacin]
Sp/Sa (%) vs 80–[…] threshold ([4]; newborn gastric media (Pn-FaSSGF), previous study): outside the limits of the 80–125% threshold | logP ([3]; no reference given): 4.3

Compound: O=C1NC(=O)C(c2ccccc2)(c2ccccc2)N1 [phenytoin]
Sp/Sa (%) ([4]; Pnc-FeSSIF, compound of the previous study): significant lower | Sp/Sa (%) [4, 9]: below 80 % of adult values
